# Numbered stars: 1 amine (or outer) side, 2 acyl side, 3 side chain; on linkers, the order of the positions; unused ones are H or OH. Square brackets hold non-standard residues; d marks the D form. Side chains are listed from the residue outwards. * marks the point of attachment. C18 diacid = O=C(O)CCCCCCCCCCCCCCCCC(=O)*; γGlu = O=C(O)[C@H](CCC(=O)[*:2])N[*:1]; AEEA = NCCOCCOCC(=O)O; Aib = CC(C)(N)C(=O)O
# Target: T1, human GLP-1 receptor (hGLP-1R) (Homo sapiens, UniProt P43220)
# T1 construct: expressed in transfected cells
# Assay: GLP-1 receptor assay, method A (CRE-luciferase reporter, BHK cells)
# Type: cell-based
# Settings: method A, absence of HSA; read-out: hGLP-1R Potency, no HSA, EC50
# Protocol: (§1) To assess how the activation of the receptors is potentially influenced by the presence of human serum albumin (HSA), the in vitro assays were performed in the absence of HSA and presence of 1% (w/v) HSA.
# Cells at approximately 80-90% confluence were washed once in PBS (Gibco 14190-094) and loosened from the cell flasks with Versene (Gibco, 15040-033). […] Cells were aliquoted and stored at −180° C. until use.
# (§2) The assay buffer consisted of DMEM without phenol red (Gibco, 11880-028) supplemented with 1× GlutaMAX (Gibco, 35050-038), 10 mM HEPES (Gibco, 15630-056), 1% (w/v) ovalbumin (Sigma, A5503) and 0.1% (v/v) Pluronic F-68 (Gibco, 24040-032) either with HSA or without HSA (Sigma, A9511).
# Frozen stocks of hGLP-1R BHK CRE-Luc cells were thawed in a 37° C. water bath, washed once in PBS (Gibco 14190-094) and diluted to 1.5×10^6 (1.5E+6) cells/mL in assay buffer with or without 2% (w/v) HSA (Sigma, A9511). […] The assay plates were incubated for 3 hours at 37° C. in 5% CO2, left at room temperature for 5 minutes after which 100 μL steadylite Plus™ (PerkinElmer/Revvity, 6066759) was added to each well. Plates were sealed and incubated at room temperature with gentle shaking for 30 minutes while protected from light. Luminescence was detected on a luminescence plate reader e.g., a Synergy 2 (BioTek).
# T1 sequence (P43220 24-463): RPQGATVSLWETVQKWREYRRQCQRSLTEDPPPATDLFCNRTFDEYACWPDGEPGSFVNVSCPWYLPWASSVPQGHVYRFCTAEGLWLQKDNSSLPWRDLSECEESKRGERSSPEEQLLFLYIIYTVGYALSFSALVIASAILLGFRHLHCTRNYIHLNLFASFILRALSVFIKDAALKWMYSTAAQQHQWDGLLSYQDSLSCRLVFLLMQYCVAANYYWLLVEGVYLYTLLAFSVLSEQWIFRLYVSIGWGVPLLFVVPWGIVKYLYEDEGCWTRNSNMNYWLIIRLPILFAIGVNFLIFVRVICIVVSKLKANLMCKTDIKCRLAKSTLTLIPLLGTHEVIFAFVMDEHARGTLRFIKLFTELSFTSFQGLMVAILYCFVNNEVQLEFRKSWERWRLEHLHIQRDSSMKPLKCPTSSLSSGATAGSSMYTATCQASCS
row,Substance,EC50 [pM]
1,H[Aib]HGTFTSDYSILLEEQAAREFIEWLLAGGPSK([AEEA-AEEA-γGlu-C18 diacid])GALAQTLGTNEASELSTAALGRLSAELHRLATLPRTETGSGSP-NH2 [Compound 44],3.68
2,H[Aib]HGTFTSDYSILLEEQAAREFIEWLLAGGPSK([AEEA-AEEA-γGlu-C18 diacid])GAPPPSGGGEASELSTAALGRLSAELHRLATLPRTETGSGSP-NH2 [Compound 30],6.37
3,H[Aib]HGTFTSDYSILLEEQAAREFIEWLLAGGPSK([AEEA-AEEA-γGlu-C18 diacid])GEASELSTAALGRLSAELHRLATLPRTETGSGSP-NH2 [Compound 25],2.87
4,H[Aib]HGTFTSDYSILLEEQAAREFIEWLLAGGPSK([AEEA-AEEA-γGlu-C18 diacid])GEASQLSTAALGRLSAELHHLATLPRTETGSGSP-NH2 [Compound 66],5.25

# Target: T2, human amylin receptor (hAMYR3) (Homo sapiens, UniProt O60896+P30988)
# T2 construct: host or cells: BHK cells (Hollex-1 line expressing hCTR(a) and CRE-Luc), further transfected with human RAMP3
# Assay: Amylin receptor assay, method A (CRE-luciferase reporter, BHK cells)
# Type: cell-based
# Settings: method A, absence of HSA; read-out: hAMYR3 Potency, no HSA, EC50
# Protocol: as §1
# It is thus possible to measure hAMYR3 activity using a CRE-luciferase reporter gene introduced into Baby Hamster Kidney (BHK) cells co-expressing the hAMYR3.
# The cell line was further transfected with human receptor modifying protein 3 (RAMP3) using standard methods.
# After centrifugation, the cell pellet was resuspended and diluted to approximately 2.5-4.0×10^6 (2.5E+6 to 4.0E+6) cells/mL in Recovery™ Cell Culture Freezing Medium (Gibco, 12648-010). Cells were aliquoted and stored at −180° C. until use.
# as §2, with “15630-056) and” for “15630-056),”, “either with or without” for “and”, “24040-032) and” for “24040-032)”, “with” for “with HSA”
# The plate was incubated over night at 37° C. in 5% CO2. […] Luminescence was detected on a luminescence plate reader e.g., a Synergy 2 (BioTek).
# T2 sequence (P30988 25-474): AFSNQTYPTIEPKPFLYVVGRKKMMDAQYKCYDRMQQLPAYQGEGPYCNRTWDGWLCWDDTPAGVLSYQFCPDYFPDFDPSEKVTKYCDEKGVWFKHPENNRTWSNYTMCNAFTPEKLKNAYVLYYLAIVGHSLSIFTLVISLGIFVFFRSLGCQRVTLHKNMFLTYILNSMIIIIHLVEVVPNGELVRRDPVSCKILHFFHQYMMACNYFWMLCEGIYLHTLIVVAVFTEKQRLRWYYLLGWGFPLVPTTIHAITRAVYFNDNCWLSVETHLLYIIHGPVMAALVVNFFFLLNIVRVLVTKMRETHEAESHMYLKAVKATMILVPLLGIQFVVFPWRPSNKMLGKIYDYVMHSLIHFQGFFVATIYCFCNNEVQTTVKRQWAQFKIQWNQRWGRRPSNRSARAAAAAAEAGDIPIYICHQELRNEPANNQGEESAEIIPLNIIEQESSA
# T2 sequence (O60896 24-148): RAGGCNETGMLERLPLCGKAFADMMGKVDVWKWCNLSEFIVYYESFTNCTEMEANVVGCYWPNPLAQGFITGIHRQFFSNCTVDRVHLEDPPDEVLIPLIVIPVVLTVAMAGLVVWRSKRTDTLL
row,Substance,EC50 [pM]
1,H[Aib]HGTFTSDYSILLEEQAAREFIEWLLAGGPSK([AEEA-AEEA-γGlu-C18 diacid])GALAQTLGTNEASELSTAALGRLSAELHRLATLPRTETGSGSP-NH2 [Compound 44],3.8
2,H[Aib]HGTFTSDYSILLEEQAAREFIEWLLAGGPSK([AEEA-AEEA-γGlu-C18 diacid])GAPPPSGGGEASELSTAALGRLSAELHRLATLPRTETGSGSP-NH2 [Compound 30],2.28
3,H[Aib]HGTFTSDYSILLEEQAAREFIEWLLAGGPSK([AEEA-AEEA-γGlu-C18 diacid])GEASELSTAALGRLSAELHRLATLPRTETGSGSP-NH2 [Compound 25],3.22
4,H[Aib]HGTFTSDYSILLEEQAAREFIEWLLAGGPSK([AEEA-AEEA-γGlu-C18 diacid])GEASQLSTAALGRLSAELHHLATLPRTETGSGSP-NH2 [Compound 66],2.32

# Target: T3, human GIP receptor (hGIPR) (Homo sapiens, UniProt P48546)
# T3 construct: expressed in transfected cells
# T3 sequence (P48546 22-466): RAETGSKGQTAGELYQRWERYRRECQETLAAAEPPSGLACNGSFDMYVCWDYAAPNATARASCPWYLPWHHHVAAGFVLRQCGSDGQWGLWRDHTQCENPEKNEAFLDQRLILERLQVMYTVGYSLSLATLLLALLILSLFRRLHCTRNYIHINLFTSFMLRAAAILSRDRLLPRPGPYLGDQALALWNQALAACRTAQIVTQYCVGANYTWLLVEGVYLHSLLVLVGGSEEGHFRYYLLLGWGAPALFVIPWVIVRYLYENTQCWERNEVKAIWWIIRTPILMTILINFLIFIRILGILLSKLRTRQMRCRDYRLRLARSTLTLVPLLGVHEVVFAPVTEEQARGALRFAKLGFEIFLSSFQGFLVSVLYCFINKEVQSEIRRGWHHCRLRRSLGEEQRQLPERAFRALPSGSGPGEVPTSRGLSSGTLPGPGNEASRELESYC
# Assay: GIP receptor assay, method A (CRE-luciferase reporter, BHK cells)
# Type: cell-based
# Settings: method A, absence of HSA; read-out: hGIPR Potency, no HSA, EC50
# Protocol: To assess how the activation of the receptors is potentially influenced by the presence of human serum albumin (HSA), the in vitro assays were performed in the absence of HSA and presence of 1% (w/v) HSA. Unless stated otherwise the reference to the “GIP receptor assay as described in Example 4” throughout the specification shall refer to the described herein assay procedure method A (hGIPR assay) in the absence of HSA.
# Activation of the human GIP receptor leads to increased intra-cellular concentrations of cyclic AMP (cAMP) and the consequent transcription activation from promoters containing multiple copies of the cAMP response element (CRE). It is thus possible to measure GIP receptor activity using a CRE-luciferase reporter gene introduced into Baby Hamster Kidney (BHK) cells co-expressing the human GIP receptor.
# Cells at about 80-90% confluency were washed once with PBS (Gibco 14190-094) and detached from the cell flasks with Versene (Gibco, 15040-066). After centrifugation, the cells were counted, resuspended and diluted to approximately 1.5-3.0×10^6 (1.5E+6 to 3.0E+6) cells/mL in Recovery Cell Culture Freezing Medium (Gibco, 12648-010) and stored at −180° C. in suitable aliquots until use.
# as §2
# On the day before the assay hGIPR BHK Cre-Luc cells were thawed and plated out in 96 well Culture Plates (PerkinElmer/Revvity, 6005680) at 5.0×10^3 (5.0E+3) cells/well in growth medium as described above. The plates were then incubated for 21-23 hours at 37° C. with 5% CO2. On the day of the assay GLP-1-/GIP-/amylin-receptor tri-agonists or reference compounds were diluted in assay buffer using a 7-point, 10-fold titration plus a blank (absence of compound). Each compound was diluted and tested in duplicates in each experiment. In the plates containing the cells the growth medium was removed, and cells were washed twice with 100 μL PBS (Gibco 14190-094). 50 μL of the test compound dilutions were added to the plates containing cells preceded by 50 μL assay buffer with or without 2% (w/v) HSA (Sigma, A9511). The cell plates were incubated for 3 hours in a 5% CO2 incubator at 37° C. The plates were then transferred to room temperature followed by addition of 100 μL steadylite Plus™ (PerkinElmer/Revvity, 6066759). The plates were sealed and shaken for 30 minutes at room temperature while protected from light. Finally, luminescence (as an indicator of receptor activation) was measured on a Mithras reader (Berthold Technologies, DE). The EC50-values [pM] were calculated by non-linear curve fitting applying a four-parameter logistic model (Hill slope=“shared value for all datasets”) using GraphPad Prism (GraphPad Software, Boston, MA, USA).
row,Substance,EC50 [pM]
1,H[Aib]HGTFTSDYSILLEEQAAREFIEWLLAGGPSK([AEEA-AEEA-γGlu-C18 diacid])GALAQTLGTNEASELSTAALGRLSAELHRLATLPRTETGSGSP-NH2 [Compound 44],6.3
2,H[Aib]HGTFTSDYSILLEEQAAREFIEWLLAGGPSK([AEEA-AEEA-γGlu-C18 diacid])GAPPPSGGGEASELSTAALGRLSAELHRLATLPRTETGSGSP-NH2 [Compound 30],6.8
3,H[Aib]HGTFTSDYSILLEEQAAREFIEWLLAGGPSK([AEEA-AEEA-γGlu-C18 diacid])GEASELSTAALGRLSAELHRLATLPRTETGSGSP-NH2 [Compound 25],4.27
4,H[Aib]HGTFTSDYSILLEEQAAREFIEWLLAGGPSK([AEEA-AEEA-γGlu-C18 diacid])GEASQLSTAALGRLSAELHHLATLPRTETGSGSP-NH2 [Compound 66],2.39

# — patent US20260174875A1 (Novo Nordisk A/S, priority 2023, published 2026)
